Reference: patent EP0992493A1, “Substituted benzoylpiperidine derivatives and their use as Neurokinin antagonists” (PFIZER INC., priority 1998, dated 2000)
Where a name gives a salt, the structure may show the parent alone. Read-outs that look alike come from different tables or passages of the source.

Tests used:
human NK2 receptor = biological target: T1, human NK2 receptor (Homo sapiens, UniProt P21452); assay: Human NK2 receptor affinity: competition with [3H]-NKA for binding to CHO cell membranes
T1 sequence (P21452 1-398): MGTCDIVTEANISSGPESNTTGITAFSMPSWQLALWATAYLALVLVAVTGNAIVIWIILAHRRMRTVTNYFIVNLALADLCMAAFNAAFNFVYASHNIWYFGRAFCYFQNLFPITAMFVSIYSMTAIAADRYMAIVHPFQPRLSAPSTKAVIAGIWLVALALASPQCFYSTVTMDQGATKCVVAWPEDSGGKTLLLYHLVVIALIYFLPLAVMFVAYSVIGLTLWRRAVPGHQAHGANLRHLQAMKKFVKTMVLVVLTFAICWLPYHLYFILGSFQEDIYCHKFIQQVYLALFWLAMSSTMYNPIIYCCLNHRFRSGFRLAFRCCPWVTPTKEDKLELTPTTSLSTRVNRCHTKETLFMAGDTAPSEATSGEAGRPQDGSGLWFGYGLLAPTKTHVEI
Description: The affinity of the compounds of formula (I) and their salts for the human NK2 receptor can be tested in vitro by testing their ability to compete with [^3H]-NKA (neurokinin A) for binding to membranes prepared from Chinese hamster ovary cells expressing the cloned human NK2 receptor. In this method, washed Chinese hamster ovary cell membranes are prepared as described for the previous method where IM9 cells are used instead. The membranes are incubated (90 min, 25°C) with [^3H]-NKA and with a range of concentrations of the test compound. Non-specific binding was determined in the presence of 10µM NKA.
Human NK2 receptor affinity was tested in vitro by testing the ability to compete with [^3H]-NKA for binding to membranes prepared from Chinese hamster ovary cells expressing the cloned human NK2 receptor using the method set out on page 10. The pKi was then determined.
(§1) The "pKi" measurement is the negative logarithm of the molar affinity of the test compound for the receptor as determined in radioligand binding assays using standard protocols. A 1.0 log. unit difference in either the NK2 or NK3 receptor affinity figures corresponds to a 10-fold activity difference.

NK3 receptor = biological target: T2, NK3 receptor (Cavia porcellus, UniProt P30098); assay: NK3 receptor affinity: inhibition of [3H]-senktide binding to guinea pig cortex membranes
T2 construct: membranes from guinea pig cortex; from tissue; host or cells: guinea pig cortex membranes
T2 sequence (P30098 1-440): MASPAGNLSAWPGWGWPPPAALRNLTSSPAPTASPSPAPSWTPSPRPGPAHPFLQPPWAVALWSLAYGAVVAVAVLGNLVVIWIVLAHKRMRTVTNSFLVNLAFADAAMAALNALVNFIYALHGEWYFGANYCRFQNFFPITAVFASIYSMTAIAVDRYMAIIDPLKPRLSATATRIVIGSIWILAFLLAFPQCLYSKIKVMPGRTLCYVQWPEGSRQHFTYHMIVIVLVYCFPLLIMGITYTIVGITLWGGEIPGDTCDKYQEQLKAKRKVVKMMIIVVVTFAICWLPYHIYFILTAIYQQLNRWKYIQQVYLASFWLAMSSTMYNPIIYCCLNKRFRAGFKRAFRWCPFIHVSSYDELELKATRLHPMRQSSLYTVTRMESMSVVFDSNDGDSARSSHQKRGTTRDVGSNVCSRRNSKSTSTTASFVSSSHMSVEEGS
Description: The compounds of the formula (I) and their salts can be tested for NK3 receptor affinity, in vitro, by testing their ability to inhibit [^3H]-senktide binding to membranes from guinea pig cortex using the method of Guard, et al, Br.J.Pharmacol., 99, 767-773 (1990).
NK3 receptor affinity was tested, in vitro, by the method described on pages 10 and 11 by testing the ability to inhibit [^3H]-senktide binding to membranes from guinea pig cortex using the method of Guard, et al, Br.J.Pharmacol., 99, 767-773 (1990). The pKi was then determined.
as §1

[1] = In vitro metabolic stability: disappearance half-life in human liver microsomes (HLM/37); type: in vitro ADME; conditions: human liver microsomes HLM/37 (0.5µM cytochrome P450), test compound 1µM, 37°C, NADPH, 60 minutes
Description: The in vitro metabolic stability of the compounds of the formula (I) and their salts can be tested by incubating samples for 1 hour at 37°C in the presence of a "moderate activity" (re. concentrations of cytochrome p450 enzymes present) human liver microsomal preparation (prepared from human liver homogenates). The samples were analysed by HPLC at regular intervals during this one hour period and the half-life (t½) determined (in minutes).
The metabolic stability of the compounds was determined in vitro by the method described on page 11 according to the following experimental protocol.
Transplant-quality human liver tissue was obtained from the International Institute for the Advancement of Medicine (Exton, PA). The donors ranged in age from 26 to 65 years old and included 3 males and 3 females. Hepatic microsomes were prepared from individual human livers by the process of differential centrifugation. Briefly, the liver tissue was homogenised in 50mM Tris HCI (pH 7.4) containing 250mM sucrose and then centrifuged at 9,000G for 20 minutes to remove the cell debris and nuclear fraction. The supernatant layer was removed and further centrifuged at 105,000G for 60 minutes to pellet the microsomal fraction. […] The cytochrome P450 content was determined using the method of Omura, T., Sato, R., J. Biol. Chem., 239, 2379-2385 (1964) and the protein concentration was determined using the method of Lowry et al., J. Biol. Chem., 193, 265-275 (1951), with bovine serum albumin as the protein standard.
The metabolic activities of the 6 major drug metabolising cytochrome P450 enzymes were determined for HLM/37 and compared to values obtained from a bank of individual human livers (n = 19). […]
Aliquots (100µl) were removed from the incubation at 0, 3, 5, 10, 15, 20, 30, 45 and 60 minutes after the addition of NADPH. […] After centrifugation 150µl aliquots were removed and 120µl of each of these analysed by HPLC on a Hypersil HS C18 5µ column (50x4.6mm) with a mobile phase of methanol:water (90:10, by volume) containing 2mM ammonium acetate. […]

With `CS(=O)(=O)N1CC(C2CCN(CC[C@]3(c4ccc(Cl)c(Cl)c4)CCCN(C(=O)c4ccccc4)C3)CC2)C1` [Example 10, 3(S)-1-Benzoyl-3-(3,4-dichlorophenyl)-3-{2-[4-(1-methylsulfonylazetidin-3-yl)piperidin-1-yl]ethyl}piperidine] the Ki (human NK2 receptor) was 5.01 nM, the Ki (NK3 receptor) was 20 nM and the half-life at 1 µM [1] was 32 min.
Compound `O=C(c1ccccc1)N1CCC[C@](CCN2CCC(C3CCOCC3)CC2)(c2ccc(Cl)c(Cl)c2)C1` [Example 2] has a Ki (human NK2 receptor; [3H]-NKA, membranes from Chinese hamster ovary cells expressing the cloned human NK2 receptor, 90 min, 25°C, read-out: pKi (NK2) (converted)) of 6.31 nM, a Ki (NK3 receptor; [3H]-senktide, membranes from guinea pig cortex, read-out: pKi (NK3) (converted)) of 63.1 nM and a half-life at 1 µM [1] of 28 min.
`CS(=O)(=O)N1CCC(C2CN(CC[C@]3(c4ccc(Cl)c(Cl)c4)CCCN(C(=O)c4ccccc4)C3)C2)CC1` [Example 6, 3(S)-1-Benzoyl-3-(3,4-dichlorophenyl)-3-{2-[3-(1-methylsulphonyl-4-piperidinyl)azetidin-1-yl]ethyl}piperidine hydrochloride] gave a Ki (human NK2 receptor) of 5.01 nM, a Ki (NK3 receptor) of 39.8 nM and a half-life at 1 µM [1] of 53 min.
